Columns and labels:
Conditions in all cases: three weeks after treatment
Amaranthus tuberculatus [1] = assay: Pre-emergence herbicidal evaluation, AMATA; format: in vivo
Text: (§1) The treated pots are then placed on greenhouse benches, watered and cared for in accordance with conventional greenhouse procedures.

Galium aparine [2] = assay: Pre-emergence herbicidal evaluation, GALAP; format: in vivo
Text: as §1

Alopecurus myosuroides [3] = assay: Pre-emergence herbicidal evaluation, ALOMY; format: in vivo
Text: as §1

Apera spica venti [4] = assay: Pre-emergence herbicidal evaluation, APESV; format: in vivo
Text: as §1

Echinochloa crus-galli [5] = assay: Pre-emergence herbicidal evaluation, ECHCG; format: in vivo
Text: as §1

Setaria viridis [6] = assay: Pre-emergence herbicidal evaluation, SETVI; format: in vivo
Text: as §1

Lolium perenne [7] = assay: Pre-emergence herbicidal evaluation, LOLPE; format: in vivo
Text: as §1

Triticum aestivum [8] = assay: Pre-emergence herbicidal evaluation, TRZAW; format: in vivo
Text: as §1

Hordeum vulgare [9] = assay: Pre-emergence herbicidal evaluation, HORVW; format: in vivo
Text: as §1

Zea mays [10] = assay: Pre-emergence herbicidal evaluation, ZEAMX; format: in vivo
Text: as §1

Glycine max [11] = assay: Pre-emergence herbicidal evaluation, GLXMA; format: in vivo
Text: as §1

Oryza sativum [12] = assay: Pre-emergence herbicidal evaluation, ORYSA; format: in vivo
Text: as §1

Amaranthus tuberculatus [13] = assay: Post-emergence herbicidal evaluation, AMATA; format: in vivo
Galium aparine [14] = assay: Post-emergence herbicidal evaluation, GALAP
Alopecurus myosuroides [15] = assay: Post-emergence herbicidal evaluation, ALOMY
Procedure: (§2) The compounds of the invention are tested for pre- and post-emergence herbicidal activity.
(§3) Each pot is examined three weeks after treatment and phytotoxicity is assessed according to the rating system set forth below.
(§4) These acetone solutions are diluted with water and the resulting formulations applied at dosage levels equivalent of about 0.4 to 0.1 kg per hectare of test compound per pot. After spraying the plants are placed on greenhouse benches and are cared for in the usual manner, commensurate with conventional greenhouse practices.

Apera spica venti [16] = assay: Post-emergence herbicidal evaluation, APESV
Echinochloa crus-galli [17] = assay: Post-emergence herbicidal evaluation, ECHCG
Procedure: as §2, §3, §4

Setaria viridis [18] = assay: Post-emergence herbicidal evaluation, SETVI
Lolium perenne [19] = assay: Post-emergence herbicidal evaluation, LOLPE
Triticum aestivum [20] = assay: Post-emergence herbicidal evaluation, TRZAW
Hordeum vulgare [21] = assay: Post-emergence herbicidal evaluation, HORVW
Zea mays [22] = assay: Post-emergence herbicidal evaluation, ZEAMX
Procedure: as §3, §4

Glycine max [23] = assay: Post-emergence herbicidal evaluation, GLXMA
Oryza sativum [24] = assay: Post-emergence herbicidal evaluation, ORYSA

## CC1=CC(N(C(=O)COc2nc3ccccc3o2)C(C)C)=CC(C)(C)C1 [Example 17]
Amaranthus tuberculatus [1]; 0.100 kg/ha
  phytotoxicity rating AMATA: 4 (4 - Injury)
Amaranthus tuberculatus [1]; 0.200 kg/ha
  phytotoxicity rating AMATA: 5 (5 - Definite injury)
Amaranthus tuberculatus [1]; 0.400 kg/ha
  phytotoxicity rating AMATA: 5 (5 - Definite injury)
Amaranthus tuberculatus [1]; 0.800 kg/ha
  phytotoxicity rating AMATA: 9 (9 - Complete kill)
Galium aparine [2]; 0.100 kg/ha
  phytotoxicity rating GALAP: 0 (0 - No effect)
Galium aparine [2]; 0.200 kg/ha
  phytotoxicity rating GALAP: 0 (0 - No effect)
Galium aparine [2]; 0.400 kg/ha
  phytotoxicity rating GALAP: 0 (0 - No effect)
Galium aparine [2]; 0.800 kg/ha
  phytotoxicity rating GALAP: 0 (0 - No effect)
Alopecurus myosuroides [3]; 0.100 kg/ha
  phytotoxicity rating ALOMY: 3 (3 - Moderate effect)
Alopecurus myosuroides [3]; 0.200 kg/ha
  phytotoxicity rating ALOMY: 6 (6 - Herbicidal effect)
Alopecurus myosuroides [3]; 0.400 kg/ha
  phytotoxicity rating ALOMY: 6 (6 - Herbicidal effect)
Alopecurus myosuroides [3]; 0.800 kg/ha
  phytotoxicity rating ALOMY: 9 (9 - Complete kill)
Apera spica venti [4]; 0.100 kg/ha
  phytotoxicity rating APESV: 7 (7 - Good herbicidal effect)
Apera spica venti [4]; 0.200 kg/ha
  phytotoxicity rating APESV: 8 (8 - Approaching complete kill)
Apera spica venti [4]; 0.400 kg/ha
  phytotoxicity rating APESV: 9 (9 - Complete kill)
Apera spica venti [4]; 0.800 kg/ha
  phytotoxicity rating APESV: 9 (9 - Complete kill)
Echinochloa crus-galli [5]; 0.100 kg/ha
  phytotoxicity rating ECHCG: 4 (4 - Injury)
Echinochloa crus-galli [5]; 0.200 kg/ha
  phytotoxicity rating ECHCG: 6 (6 - Herbicidal effect)
Echinochloa crus-galli [5]; 0.400 kg/ha
  phytotoxicity rating ECHCG: 7 (7 - Good herbicidal effect)
Echinochloa crus-galli [5]; 0.800 kg/ha
  phytotoxicity rating ECHCG: 9 (9 - Complete kill)
Setaria viridis [6]; 0.100 kg/ha
  phytotoxicity rating SETVI: 3 (3 - Moderate effect)
Setaria viridis [6]; 0.200 kg/ha
  phytotoxicity rating SETVI: 5 (5 - Definite injury)
Setaria viridis [6]; 0.400 kg/ha
  phytotoxicity rating SETVI: 8 (8 - Approaching complete kill)
Setaria viridis [6]; 0.800 kg/ha
  phytotoxicity rating SETVI: 8 (8 - Approaching complete kill)
Lolium perenne [7]; 0.100 kg/ha
  phytotoxicity rating LOLPE: 5 (5 - Definite injury)
Lolium perenne [7]; 0.200 kg/ha
  phytotoxicity rating LOLPE: 9 (9 - Complete kill)
Lolium perenne [7]; 0.400 kg/ha
  phytotoxicity rating LOLPE: 9 (9 - Complete kill)
Lolium perenne [7]; 0.800 kg/ha
  phytotoxicity rating LOLPE: 9 (9 - Complete kill)
Triticum aestivum [8]; 0.100 kg/ha
  phytotoxicity rating TRZAW: 1 (1 - Trace effect)
Triticum aestivum [8]; 0.200 kg/ha
  phytotoxicity rating TRZAW: 2 (2 - Slight effect)
Triticum aestivum [8]; 0.400 kg/ha
  phytotoxicity rating TRZAW: 2 (2 - Slight effect)
Triticum aestivum [8]; 0.800 kg/ha
  phytotoxicity rating TRZAW: 4 (4 - Injury)
Hordeum vulgare [9]; 0.100 kg/ha
  phytotoxicity rating HORVW: 1 (1 - Trace effect)
Hordeum vulgare [9]; 0.200 kg/ha
  phytotoxicity rating HORVW: 2 (2 - Slight effect)
Hordeum vulgare [9]; 0.400 kg/ha
  phytotoxicity rating HORVW: 2 (2 - Slight effect)
Hordeum vulgare [9]; 0.800 kg/ha
  phytotoxicity rating HORVW: 4 (4 - Injury)
Zea mays [10]; 0.100 kg/ha
  phytotoxicity rating ZEAMX: 0 (0 - No effect)
Zea mays [10]; 0.200 kg/ha
  phytotoxicity rating ZEAMX: 0 (0 - No effect)
Zea mays [10]; 0.400 kg/ha
  phytotoxicity rating ZEAMX: 1 (1 - Trace effect)
Zea mays [10]; 0.800 kg/ha
  phytotoxicity rating ZEAMX: 3 (3 - Moderate effect)
Glycine max [11]; 0.100 kg/ha
  phytotoxicity rating GLXMA: 0 (0 - No effect)
Glycine max [11]; 0.200 kg/ha
  phytotoxicity rating GLXMA: 0 (0 - No effect)
Glycine max [11]; 0.400 kg/ha
  phytotoxicity rating GLXMA: 0 (0 - No effect)
Glycine max [11]; 0.800 kg/ha
  phytotoxicity rating GLXMA: 1 (1 - Trace effect)
Oryza sativum [12]; 0.100 kg/ha
  phytotoxicity rating ORYSA: 2 (2 - Slight effect)
Oryza sativum [12]; 0.200 kg/ha
  phytotoxicity rating ORYSA: 3 (3 - Moderate effect)
Oryza sativum [12]; 0.400 kg/ha
  phytotoxicity rating ORYSA: 4 (4 - Injury)
Oryza sativum [12]; 0.800 kg/ha
  phytotoxicity rating ORYSA: 4 (4 - Injury)
Amaranthus tuberculatus [13]; 0.100 kg/ha
  phytotoxicity rating AMATA: 3 (3 - Moderate effect)
Amaranthus tuberculatus [13]; 0.200 kg/ha
  phytotoxicity rating AMATA: 4 (4 - Injury)
Amaranthus tuberculatus [13]; 0.400 kg/ha
  phytotoxicity rating AMATA: 5 (5 - Definite injury)
Galium aparine [14]; 0.100 kg/ha
  phytotoxicity rating GALAP: 1 (1 - Trace effect)
Galium aparine [14]; 0.200 kg/ha
  phytotoxicity rating GALAP: 3 (3 - Moderate effect)
Galium aparine [14]; 0.400 kg/ha
  phytotoxicity rating GALAP: 4 (4 - Injury)
Alopecurus myosuroides [15]; 0.100 kg/ha
  phytotoxicity rating ALOMY: 3 (3 - Moderate effect)
Alopecurus myosuroides [15]; 0.200 kg/ha
  phytotoxicity rating ALOMY: 6 (6 - Herbicidal effect)
Alopecurus myosuroides [15]; 0.400 kg/ha
  phytotoxicity rating ALOMY: 8 (8 - Approaching complete kill)
Apera spica venti [16]; 0.100 kg/ha
  phytotoxicity rating APESV: 6 (6 - Herbicidal effect)
Apera spica venti [16]; 0.200 kg/ha
  phytotoxicity rating APESV: 8 (8 - Approaching complete kill)
Apera spica venti [16]; 0.400 kg/ha
  phytotoxicity rating APESV: 8 (8 - Approaching complete kill)
Echinochloa crus-galli [17]; 0.100 kg/ha
  phytotoxicity rating ECHCG: 3 (3 - Moderate effect)
Echinochloa crus-galli [17]; 0.200 kg/ha
  phytotoxicity rating ECHCG: 4 (4 - Injury)
Echinochloa crus-galli [17]; 0.400 kg/ha
  phytotoxicity rating ECHCG: 6 (6 - Herbicidal effect)
Setaria viridis [18]; 0.100 kg/ha
  phytotoxicity rating SETVI: 5 (5 - Definite injury)
Setaria viridis [18]; 0.200 kg/ha
  phytotoxicity rating SETVI: 6 (6 - Herbicidal effect)
Setaria viridis [18]; 0.400 kg/ha
  phytotoxicity rating SETVI: 6 (6 - Herbicidal effect)
Lolium perenne [19]; 0.100 kg/ha
  phytotoxicity rating LOLPE: 4 (4 - Injury)
Lolium perenne [19]; 0.200 kg/ha
  phytotoxicity rating LOLPE: 7 (7 - Good herbicidal effect)
Lolium perenne [19]; 0.400 kg/ha
  phytotoxicity rating LOLPE: 8 (8 - Approaching complete kill)
Triticum aestivum [20]; 0.100 kg/ha
  phytotoxicity rating TRZAW: 0 (0 - No effect)
Triticum aestivum [20]; 0.200 kg/ha
  phytotoxicity rating TRZAW: 1 (1 - Trace effect)
Triticum aestivum [20]; 0.400 kg/ha
  phytotoxicity rating TRZAW: 2 (2 - Slight effect)
Hordeum vulgare [21]; 0.100 kg/ha
  phytotoxicity rating HORVW: 0 (0 - No effect)
Hordeum vulgare [21]; 0.200 kg/ha
  phytotoxicity rating HORVW: 0 (0 - No effect)
Hordeum vulgare [21]; 0.400 kg/ha
  phytotoxicity rating HORVW: 0 (0 - No effect)
Zea mays [22]; 0.100 kg/ha
  phytotoxicity rating ZEAMX: 0 (0 - No effect)
Zea mays [22]; 0.200 kg/ha
  phytotoxicity rating ZEAMX: 0 (0 - No effect)
Zea mays [22]; 0.400 kg/ha
  phytotoxicity rating ZEAMX: 1 (1 - Trace effect)
Glycine max [23]; 0.100 kg/ha
  phytotoxicity rating GLXMA: 3 (3 - Moderate effect)
Glycine max [23]; 0.200 kg/ha
  phytotoxicity rating GLXMA: 3 (3 - Moderate effect)
Glycine max [23]; 0.400 kg/ha
  phytotoxicity rating GLXMA: 6 (6 - Herbicidal effect)
Oryza sativum [24]; 0.100 kg/ha
  phytotoxicity rating ORYSA: 0 (0 - No effect)
Oryza sativum [24]; 0.200 kg/ha
  phytotoxicity rating ORYSA: 3 (3 - Moderate effect)
Oryza sativum [24]; 0.400 kg/ha
  phytotoxicity rating ORYSA: 4 (4 - Injury)

— US6339042B1, “Herbicidal N-cyclohexadienyl heteroaryloxyacetamides” (American Cyanamid Co., priority 1999, dated 2002)
